A short description of one data set: in vitro. The settings on record: human.
The nature of data set [1]: Detection of compounds in brain after in vivo administration. The settings on record: for Detection in brain after i.v. administration: B6C3 mouse, 5 mg/kg body weight i.v. once, brain samples; for Detectability after oral administration: mouse brain, oral gavage or feeding pellets; for Detection in brain after oral administration, oral gavage administration / Detection in brain after oral administration, feeding pellet preparation: mouse; for Detection in brain after oral administration, oral gavage administration: five to seven doses over two or three days, sampling 30 min. after last application; for Detection in brain after oral administration, feeding pellet preparation: brain samples after one week feeding.

The next data set addresses Aβ1-42 peptide (Homo sapiens, UniProt P05067). Kind of data set: Thioflavin T (Thio T)-assay of Aβ aggregation. Type of data set: biochemical.
Details of data set [2]: Detection in brain after i.v. administration: key to the marks not given beside the values. The settings on record: mouse, in vivo.
The subject of the next data set is Tg2576 mice. Put plainly: Contextual fear conditioning in Tg2576 mice. In kind it is in vivo, mouse. The settings on record: 9-month-old Tg2576 mice, feeding pellets for 12 weeks. As to the method:
Groups of Tg2576 mice overexpressing the 695-amino acid isoform of human amyloid precursor protein containing a Lys670→Asn, Met671→Leu mutation (Hsiao, K. Science 1996) and wildtype control mice (13-21 per phenotype) were conditioned on day 1 by placing a subject mouse in a contextual fear conditioning chamber (Med Associates, […], Vt.). Exploration was allowed for 2 min, and an auditory cue was presented for 15 s accompanied by an electrical foot shock during the last 2 s. This procedure was repeated and mice were removed from the chamber after 30 s. Twenty hours later, mice were returned to the chamber in which conditioning occured, and their freezing behaviour (fear) was monitored. Freezing was defined as the lack of all movements, except those required for breathing (Comery, T. A., et al. Journal of Neuroscience, 2005). Data were analysed by two-way ANOVA in the S programming environment, followed by Fischer's least significant difference (LSD) pairwise comparison of group means at the p<0.05 significance level.
The contextual fear conditioning paradigm is a form of Pavlovian learning in which an association is made between stimuli and their aversive consequences. Studies of brain function implicate the amygdala in regulating fear, and the hippocampus in regulating the learning of the context in which a fearful event occurred.
The brain circuitry in wild type mice is intact and they are better able to associate an aversive foot shock with the context or environment in which the shock took place. They therefore show more freezing. Transgenic Alzheimer mice have compromised brain circuitry due to the toxic effects of amyloid-beta protein. They are therefore less able to associate an aversive shock with a context and show less freezing.
A substance that reverses the toxic effects of amyloid-beta in Alzheimer's mice will help in reconsolidating the impaired brain circuitry so that these mice begin to show more fear (freezing behavior) after treatment. This paradigm is therefore a robust method for showing the effect of drug candidate molecules in Alzheimer mice.

[3] abbreviates: 30 μM Aβ1-42 peptide, 48 h at 37° C., vs DMSO control, read-out: ThioT: IC50.

This is an account of results in patent US8974768B2, “Azo compounds reducing formation and toxicity of amyloid beta aggregation intermediates” (Max-Delbrueck-Centrum fuer Molekulare Medizin, priority 2010, dated 2015).

SMILES strings stand for the structures. Where a name gives a salt, the structure may show the parent alone. Read-outs that look alike come from different tables or passages of the source.

Aβ1-42 peptide, sequence (P05067 672-713): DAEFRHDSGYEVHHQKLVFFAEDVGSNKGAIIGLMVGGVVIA

By IC50 is commonly meant the midpoint of a concentration-inhibition curve. Turning to `Cc1cc(O)cc(O)c1N=Nc1nccs1` [Compound 22, 5-methyl-4-(thiazol-2-yldiazenyl)benzene-1,3-diol], in the data set “in vitro”, the half-maximal inhibitory concentration (IC50) at 48 h was roughly 101 µM. The “Detection in brain after i.v. administration” value in data set [1] is reported as “−”. Further, the IC50 on Aβ1-42 peptide (setting [3]) was 2.4 µM.
`Cc1cccc(N=Nc2cc(C=O)c(O)cc2O)c1` [Compound 16, 2,4-dihydroxy-5-(m-tolyldiazenyl)benzaldehyde]: the concentration for half-maximal inhibition (IC50) at 48 h in “in vitro” was greater than 30 µM. Besides, the half-maximal inhibitory concentration (IC50) at Aβ1-42 peptide (setting [3]) stood at 3.3 µM.
With `Oc1ccc2ccccc2c1N=Nc1ccccc1` [Compound 25, 1-(phenyldiazenyl)naphthalen-2-ol], the IC50 on Aβ1-42 peptide (setting [3]) was found to be 43.9 µM.
With `O=S(=O)(O)c1ccc(O)c(N=Nc2ccc(O)cc2O)c1` [Compound 29, sodium 3-((2,4-dihydroxyphenyl)diazenyl)-4-hydroxybenzenesulfonate], the IC50 on Aβ1-42 peptide (setting [3]) amounted to 19.8 µM.
`O=C(O)c1cc(N=Nc2ccccc2)ccc1O` [A, 2-hydroxy-5-(phenyldiazenyl)benzoic acid, reference compound]: the IC50 on Aβ1-42 peptide (setting [3]) is 57.4 µM.
As to `CN(C)CCCN1c2ccccc2Sc2ccc(Cl)cc21` [Chlorpromazine, Chlorpromazine hydrochloride, reference compound], 14.1 µM corresponded to half-maximal inhibition in the data set “in vitro” (IC50 at 48 h).
In “in vitro”, `Oc1ccc(N=Nc2ccccn2)c(O)c1` [Compound 12, 4-(pyridin-2-yldiazenyl)benzene-1,3-diol] yielded a half-maximal inhibitory concentration (IC50) at 48 h greater than 1 µM. Moreover, in data set [1], the “Detection in brain after i.v. administration” value was “−”. Besides, the IC50 at Aβ1-42 peptide (setting [3]) was determined as 3 µM.
In turn, `Oc1ccc(N=Nc2ccccc2)c(O)c1` [Compound 15, 4-(phenyldiazenyl)benzene-1,3-diol] displayed an IC50 at 48 h in “in vitro” of roughly 31 µM. For the same compound, the IC50 on Aβ1-42 peptide (setting [3]) came to 2.2 µM.
In the case of `CN(C)c1ccc(N=Nc2ccc(N=C=S)cc2)cc1` [Compound 10, 4-((4-isothiocyanatophenyl)diazenyl)-N,N-dimethylaniline], the 50% inhibitory concentration (IC50) in “in vitro” is greater than 100 µM. Moreover, the “Detection in brain after i.v. administration” value in data set [2] (iv, 5 mg/kg) was “++”. In data set [2] (po), the “Detectability after oral administration” value is “excellent”; the “Detection in brain after oral administration, feeding pellet preparation” value (shortened to “Detection in brain … feeding pellet preparation”) is “++^a), b)”; the “Detection in brain after oral administration, oral gavage administration” value (shortened to “Detection in brain … oral gavage administration”) is “++^a), b)”. For the same compound, on Aβ1-42 peptide, the IC50 amounted to 0.4 µM.
Regarding `Cc1cc(O)cc(O)c1N=Nc1ccc([N+](=O)[O-])cc1` [Compound 19, 5-methyl-4-((4-nitrophenyl)diazenyl)benzene-1,3-diol], in “in vitro”, the half-maximal inhibitory concentration (IC50) at 48 h is roughly 41 µM. Also, in data set [1], the “Detection in brain after i.v. administration” value is given as “++”. Moreover, the concentration for half-maximal inhibition (IC50) at Aβ1-42 peptide (setting [3]) was 0.9 µM.
Take `Cc1cc(N=Nc2nccs2)c(O)cc1O` [Compound 18, 4-methyl-6-(thiazol-2-yldiazenyl)benzene-1,3-diol]: in the data set “in vitro”, the IC50 at 48 h is roughly 13 µM. Further, in data set [1], the “Detection in brain after i.v. administration” value was “++”; the “Detectability after oral administration” value is “excellent”; the “Detection in brain … oral gavage administration” value is reported as “++^b)/n.d.^b)”. At Aβ1-42 peptide (setting [3]), the 50% inhibitory concentration (IC50) came out at 2.4 µM.
For the compound `COc1ccc(N=Nc2nccs2)c(O)c1` [Compound 30, 5-methoxy-2-(thiazol-2-yldiazenyl)phenol], the IC50 on Aβ1-42 peptide (setting [3]) was found to be 27.4 µM.
For the compound `O=C(O)c1cc(N=Nc2ccc(-c3ccc(N=Nc4ccc(O)c(C(=O)O)c4)cc3)cc2)ccc1O` [C, (5-5′-biphenyl-4,4′-diylbis(diazene-2,1-diyl)bis(2-hydroxybenzoic acid)), reference compound], the 50% inhibitory concentration (IC50) on Aβ1-42 peptide (setting [3]) stood at 0.5 µM.
For `Oc1ccc(N=Nc2nccs2)c(O)c1` [Compound 14, 4-(thiazol-2-yldiazenyl)benzene-1,3-diol], in the data set “in vitro”, the half-maximal inhibitory concentration (IC50) at 48 h was greater than 3 µM. In data set [1], the “Detection in brain after i.v. administration” value is reported as “−”. For the same compound, at Aβ1-42 peptide (setting [3]), the IC50 stood at 4.8 µM.
As for `c1ccc(N=Nc2ccc(Nc3ccccc3)cc2)cc1` [Compound 1, N-phenyl-4-(phenyldiazenyl)aniline], the half-inhibitory concentration (IC50) at 48 h in the data set “in vitro” is greater than 30 µM. In data set [1], the “Detection in brain after i.v. administration” value is reported as “++”; the “Detectability after oral administration” value was “excellent”; the “Detection in brain … feeding pellet preparation” value was “++^a), b)”; the “Detection in brain … oral gavage administration” value was “++^a), b)”. For the same compound, the IC50 on Aβ1-42 peptide (setting [3]) worked out at 4.5 µM. Besides, in the data set on Tg2576 mice, the “Contextual memory (freezing behaviour)” value was “improvement”.
In the case of `Oc1ccc2ccccc2c1N=Nc1ccccn1` [Compound 5, 1-(pyridin-2-yldiazenyl)naphthalen-2-ol], in the data set “in vitro”, the concentration for half-maximal inhibition (IC50) at 48 h was greater than 10 µM. In addition, the “Detection in brain after i.v. administration” value in data set [1] was “++”. Further, the 50% inhibitory concentration (IC50) on Aβ1-42 peptide (setting [3]) was found to be 12.2 µM.
With `Cc1cc(N=Nc2ccccc2C)ccc1N` [Compound 26, 2-methyl-4-(o-tolyldiazenyl)aniline], at Aβ1-42 peptide (setting [3]), the IC50 was 31.8 µM.
For `O=[N+]([O-])c1ccc(N=Nc2c(O)ccc3ccccc23)cc1` [Compound 31, 1-((4-nitrophenyl)diazenyl)naphthalen-2-ol], the half-inhibitory concentration (IC50) at Aβ1-42 peptide (setting [3]) turned out to be 87.1 µM.
Same read-out and setting: the figure for `O=S(=O)(O)c1ccc(N=Nc2ccc(O)cc2O)cc1` [Compound 27, sodium 4-((2,4-dihydroxyphenyl)diazenyl)benzenesulfonate] is 61.5 µM.
`c1ccc(N=Nc2ccccc2)cc1` [compound 33, 1,2-diphenyldiazene, reference compound] yielded an IC50 on Aβ1-42 peptide of 1090 µM.
For the compound `CCOc1ccc(N=Nc2ccc(C)cc2)cc1C` [compound 34, 1-(4-ethoxy-3-methylphenyl)-2-p-tolyldiazene, reference compound], the 50% inhibitory concentration (IC50) on Aβ1-42 peptide (setting [3]) was 105 µM.
The same measure, in the same setting: for `O=S(=O)(O)c1cc(O)c2c(N=Nc3ccc(O)cc3O)cc(S(=O)(=O)O)cc2c1` [Compound 28, 4-((2,4-dihydroxyphenyl)diazenyl)-5-hydroxynaphthalene-2,7-disulfonic acid] the value was 19.2 µM.
In “in vitro”, `O=[N+]([O-])c1ccc(N=NNc2ccc(N=Nc3ccccc3)cc2)cc1` [Compound 23, 1-(4-nitrophenyl)-3-(4-(phenyldiazenyl)phenyl)triaz-1-ene] came in with an IC50 at 48 h greater than 30 µM. In addition, the IC50 on Aβ1-42 peptide (setting [3]) worked out at 1.1 µM.
Consider `CCNc1ccc2ccccc2c1N=Nc1ccc(N=Nc2ccccc2)cc1` [Compound 7, N-ethyl-1-((4-(-phenyldiazenyl)phenyl)diazenyl)naphthalen-2-amine], for which the 50% inhibitory concentration (IC50) at 48 h in “in vitro” is greater than 3 µM. In data set [1], the “Detection in brain after i.v. administration” value is “++”. Further, the IC50 at Aβ1-42 peptide (setting [3]) turned out to be 3.1 µM.
For `CN(C)c1ccc(N=Nc2ccccc2)cc1` [Compound 21, N,N-dimethyl-4-(phenyldiazenyl)aniline], the IC50 in the data set “in vitro” was greater than 100 µM; against Aβ1-42 peptide, 16.8 µM.
`Oc1ccc(N=Nc2ncn[nH]2)c(O)c1` [Compound 17, 4-((1H-1,2,4-triazol-5-yl)diazenyl)benzene-1,3-diol] registered a half-maximal inhibitory concentration (IC50) at 48 h in the data set “in vitro” greater than 100 µM. For the same compound, at Aβ1-42 peptide (setting [3]), the IC50 amounted to 8 µM.
In the data set “in vitro”, `Oc1ccc(N=Nc2ccccc2)cc1` [Compound 4, 4-(phenyldiazenyl)phenol] gave a 50% inhibitory concentration (IC50) at 48 h of roughly 90 µM. Also, the IC50 at Aβ1-42 peptide (setting [3]) was 13.2 µM.
Taken in the same sequence, the figures for `Nc1ccc(N=Nc2ccc([N+](=O)[O-])cc2)cc1` [Compound 3, 4-((4-nitrophenyl)diazenyl)aniline] were greater than 100 µM and 3.3 µM.
For the compound `O=[N+]([O-])c1ccc(N=Nc2ccc(O)cc2O)cc1` [Compound 13, 4-((4-nitrophenyl)diazenyl)benzene-1,3-diol], in “in vitro”, the 50% inhibitory concentration (IC50) was roughly 2 µM. In data set [1], the “Detection in brain after i.v. administration” value is listed as “++”; the “Detectability after oral administration” value is “excellent”; the “Detection in brain … feeding pellet preparation” value is recorded as “++^a), b)”; the “Detection in brain … oral gavage administration” value is given as “++^a), b)”. Also, the IC50 at Aβ1-42 peptide (setting [3]) stood at 1.1 µM.
Compound `O=S(=O)(O)c1cccc(N=Nc2ccc(Nc3ccccc3)cc2)c1` [Compound 11] gave an IC50 at 48 h in the data set “in vitro” greater than 100 µM. On Aβ1-42 peptide (setting [3]), the half-maximal inhibitory concentration (IC50) came out at 9.5 µM.
The corresponding values for `Nc1ccc(N=Nc2ccc(Nc3ccccc3)cc2)cc1` [Compound 24, 4-((4-aminophenyl)diazenyl)-N-phenylaniline] are greater than 30 µM and 4.8 µM.
In “in vitro”, `Oc1ccc(N=Nc2cc(Cl)ccc2Cl)c(O)c1` [Compound 20, 4-((2,5-dichlorophenyl)diazenyl)benzene-1,3-diol] gave an IC50 at 48 h of roughly 3 µM. For the same compound, in data set [1], the “Detection in brain after i.v. administration” value is listed as “++”. Also, the half-maximal inhibitory concentration (IC50) at Aβ1-42 peptide (setting [3]) came to 1.3 µM.
In “in vitro”, `Nc1ccc(N=Nc2cccc(N=Nc3ccc(N)cc3N)c2)c(N)c1` [Compound 6, 4,4′-1,3-phenylenebis(diazene-2,1-diyl)dibenzene-1,3-diamine] returned a concentration for half-maximal inhibition (IC50) at 48 h of roughly 11 µM. The “Detection in brain after i.v. administration” value in data set [1] is on record as “++”. Besides, the 50% inhibitory concentration (IC50) at Aβ1-42 peptide (setting [3]) came to 0.9 µM.
Take `O=C(O)c1ccccc1N=Nc1ccc(O)cc1` [B, 2-((4-hydroxyphenyl)diazenyl)Benzoic acid, reference compound]: the 50% inhibitory concentration (IC50) at Aβ1-42 peptide (setting [3]) was 736 µM.
